Test results taken from patent US20220340633A1 (Adepthera LLC, priority 2016, published 2022).
Entries after “also recorded” stand apart in the source; their conditions may differ. Positions of bridges follow the written chain, without caps; N, C: chain ends. Non-standard residues stand in square brackets, D forms with d. Residues, ends and D or L forms follow the SMILES beside them. *: point of attachment. Palmitoyl = CCCCCCCCCCCCCCCC(=O)*; AEEA = NCCOCCOCC(=O)O

Key:
[1] = system: primary human lymphatic endothelia cells (HLEC); assay: HLEC survival in medium with 0.1% FBS, MTS assay; details: 30, 100, and 300 nM, 72 hrs
Protocol: The cells were cultured for 72 hrs, and cell viability was assayed with the MTS assay (Promega).

[2] = target: T1, CLR/RAMP2 receptor (Homo sapiens, UniProt O60895+Q16602); assay: CLR/RAMP2 arrestin receptor activation assay (agonist); format: cell-based; details: for Emax: CHO-K1, read-out: CLR/RAMP 2 Max Activity % of positive control, CHO-K1 cells, % of positive control (ADM)
T1 construct: host or cells: CHO-K1 cells

[3] = target: CLR/RAMP1 receptor (Homo sapiens, UniProt O60894+Q16602); assay: CLR/RAMP1 cAMP receptor activation assay (agonist); format: cell-based; design: host or cells: 1321N1 cells; details: 1321-N1, read-out: CLR/RAMP 1 Max Activity % of positive control, 1321N1 cells; % of positive control (β-CGRP)
CLR/RAMP1 receptor, sequence (Q16602 23-461): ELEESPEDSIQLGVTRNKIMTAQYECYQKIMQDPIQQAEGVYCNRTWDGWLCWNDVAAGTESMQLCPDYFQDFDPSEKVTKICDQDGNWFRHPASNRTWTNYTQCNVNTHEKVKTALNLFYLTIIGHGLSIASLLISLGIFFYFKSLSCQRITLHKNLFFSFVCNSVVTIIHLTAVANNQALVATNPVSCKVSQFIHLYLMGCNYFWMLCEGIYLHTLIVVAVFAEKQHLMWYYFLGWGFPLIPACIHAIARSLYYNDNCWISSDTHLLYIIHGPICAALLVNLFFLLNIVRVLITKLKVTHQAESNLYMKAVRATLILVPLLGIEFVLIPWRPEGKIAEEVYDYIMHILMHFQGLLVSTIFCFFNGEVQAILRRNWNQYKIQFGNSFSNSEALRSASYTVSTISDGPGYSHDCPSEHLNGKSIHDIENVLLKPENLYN
CLR/RAMP1 receptor, sequence (O60894 27-148): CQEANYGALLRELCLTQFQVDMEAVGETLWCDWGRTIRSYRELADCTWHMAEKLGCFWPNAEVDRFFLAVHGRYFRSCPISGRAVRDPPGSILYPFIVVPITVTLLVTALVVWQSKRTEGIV
Protocol: Using a receptor activation assay, the dose-dependent stimulatory response of peptide agonists of the present invention on a CLR/RAMP1 receptor, a CLR/RAMP2, or a CLR/RAMP3 receptor complex was determined. A cell line carrying the recombinant CLR/RAMP1, CLR/RAMP2, or a CLR/RAMP3 receptor was employed in the assay. Peptide agonist activities were tested, in duplicate, at 10 different concentrations, starting with 1.0 μM and serially diluted 3-fold, in DMSO. […] The CLR/RAMP1 cAMP, CLR/RAMP2 arrestin assays, and CLR/RAMP3 cAMP (DiscoveRx, Fremont, Calif.) were used.

T1 sequence (Q16602 23-461): as the sequence (Q16602 23-461) above
T1 sequence (O60895 43-175): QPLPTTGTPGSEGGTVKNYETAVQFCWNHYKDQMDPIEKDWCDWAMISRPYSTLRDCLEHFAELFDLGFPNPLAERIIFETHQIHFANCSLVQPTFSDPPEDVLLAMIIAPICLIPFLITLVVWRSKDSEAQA

Structure (SMILES)	HLEC survival (in words) [1]	Emax [2]	Emax [3]	receptor specificity of agonist ([2]; CLR/RAMP2 versus CLR/RAMP1)
CCCCCCCCCCCCCCCC(=O)N[C@@H](CCCCN)C(=O)NCC(=O)N[C@H]1CSSC[C@@H](C(=O)N[C@H](C(=O)N[C@H](C(=O)N[C@@H](CCC(N)=O)C(=O)N[C@@H](CCCCN)C(=O)N[C@@H](CC(C)C)C(=O)N[C@@H](C)C(=O)N[C@@H](Cc2c[nH]cn2)C(=O)N[C@@H](CCC(N)=O)C(=O)N[C@H](C(=O)N[C@@H](Cc2ccc(O)cc2)C(=O)N[C@@H](CCC(N)=O)C(=O)N[C@@H](Cc2ccccc2)C(=O)N[C@H](C(=O)N[C@@H](CC(=O)O)C(=O)N[C@@H](CCCCN)C(=O)N[C@@H](CC(=O)O)C(=O)N[C@@H](CCCCN)C(=O)N[C@@H](CC(=O)O)C(=O)N[C@@H](CC(N)=O)C(=O)N[C@@H](CO)C(=O)N[C@@H](C)C(=O)N2CCC[C@H]2C(=O)N[C@H](C(=O)N[C@@H](CC(=O)O)C(=O)N2CCC[C@H]2C(=O)N[C@@H](CO)C(=O)N[C@@H](CO)C(=O)N2CCC[C@H]2C(=O)N[C@@H](Cc2c[nH]cn2)C(=O)N[C@@H](CO)C(=O)N[C@@H](Cc2ccc(O)cc2)C(N)=O)C(C)C)[C@@H](C)O)[C@@H](C)CC)C(C)C)[C@@H](C)O)NC(=O)[C@H]([C@@H](C)O)NC(=O)CNC(=O)[C@H](Cc2ccccc2)NC(=O)[C@H](CCCNC(=N)N)NC1=O [SEQ ID NO: 30]	dose-dependently stimulated; also recorded: significantly promote			
CCCCCCCCCCCCCCCC(=O)NCCCC[C@H](NC(C)=O)C(=O)NCC(=O)N[C@H]1CSSC[C@@H](C(=O)N[C@H](C(=O)N[C@H](C(=O)N[C@@H](CCC(N)=O)C(=O)N[C@@H](CCCCN)C(=O)N[C@@H](CC(C)C)C(=O)N[C@@H](C)C(=O)N[C@@H](Cc2c[nH]cn2)C(=O)N[C@@H](CCC(N)=O)C(=O)N[C@H](C(=O)N[C@@H](Cc2ccc(O)cc2)C(=O)N[C@@H](CCC(N)=O)C(=O)N[C@@H](Cc2ccccc2)C(=O)N[C@H](C(=O)N2CCC[C@H]2C(=O)N[C@@H](C)C(=O)NCC(=O)N[C@@H](CCCNC(=N)N)C(=O)N[C@@H](CCC(N)=O)C(=O)N[C@@H](CC(=O)O)C(=O)N[C@@H](CO)C(=O)N[C@@H](C)C(=O)N2CCC[C@H]2C(=O)N[C@H](C(=O)N[C@@H](CC(=O)O)C(=O)N2CCC[C@H]2C(=O)N[C@@H](CO)C(=O)N[C@@H](CO)C(=O)N2CCC[C@H]2C(=O)N[C@@H](Cc2c[nH]cn2)C(=O)N[C@@H](CO)C(=O)N[C@@H](Cc2ccc(O)cc2)C(N)=O)C(C)C)[C@@H](C)O)[C@@H](C)CC)C(C)C)[C@@H](C)O)NC(=O)[C@H]([C@@H](C)O)NC(=O)CNC(=O)[C@H](Cc2ccccc2)NC(=O)[C@H](CCCNC(=N)N)NC1=O [SEQ ID NO: 33]	dose-dependently stimulated; also recorded: significantly promote			
CCCCCCCCCCCCCCCC(=O)N[C@@H](CCCCN)C(=O)N[C@H](C(=O)N[C@@H](CCCCN)C(=O)N[C@@H](CCCCN)C(=O)N[C@H](C(=O)N[C@@H](CC(C)C)C(=O)N[C@@H](CCCNC(=N)N)C(=O)N[C@H](C(=O)NCC(=O)N[C@H]1CSSC[C@@H](C(=O)N[C@H](C(=O)N[C@H](C(=O)N[C@@H](CCC(N)=O)C(=O)N[C@@H](CCCCN)C(=O)N[C@@H](CC(C)C)C(=O)N[C@@H](C)C(=O)N[C@@H](Cc2c[nH]cn2)C(=O)N[C@@H](CCC(N)=O)C(=O)N[C@H](C(=O)N[C@@H](Cc2ccc(O)cc2)C(=O)N[C@@H](CCC(N)=O)C(=O)N[C@@H](Cc2ccccc2)C(=O)N[C@H](C(=O)N[C@@H](CC(=O)O)C(=O)N[C@@H](CCCCN)C(=O)N[C@@H](CC(=O)O)C(=O)N[C@@H](CCCCN)C(=O)N[C@@H](CC(=O)O)C(=O)N[C@@H](CC(N)=O)C(=O)N[C@@H](CO)C(=O)N[C@@H](C)C(=O)N2CCC[C@H]2C(=O)N[C@H](C(=O)N[C@@H](CC(=O)O)C(=O)N2CCC[C@H]2C(=O)N[C@@H](CO)C(=O)N[C@@H](CO)C(=O)N2CCC[C@H]2C(=O)N[C@@H](Cc2c[nH]cn2)C(=O)N[C@@H](CO)C(=O)N[C@@H](Cc2ccc(O)cc2)C(N)=O)C(C)C)[C@@H](C)O)[C@@H](C)CC)C(C)C)[C@@H](C)O)NC(=O)[C@H]([C@@H](C)O)NC(=O)CNC(=O)[C@H](Cc2ccccc2)NC(=O)[C@H](CCCNC(=N)N)NC1=O)[C@@H](C)O)[C@@H](C)O)[C@@H](C)O [SEQ ID NO: 38]	dose-dependently stimulated; also recorded: significantly promote			
CCCCCCCCCCCCCCCC(=O)NCCCC[C@H](NC(=O)[C@@H](NC(C)=O)[C@@H](C)O)C(=O)N[C@@H](CCCCN)C(=O)N[C@H](C(=O)N[C@@H](CC(C)C)C(=O)N[C@@H](CCCNC(=N)N)C(=O)N[C@H](C(=O)NCC(=O)N[C@H]1CSSC[C@@H](C(=O)N[C@H](C(=O)N[C@H](C(=O)N[C@@H](CCC(N)=O)C(=O)N[C@@H](CCCCN)C(=O)N[C@@H](CC(C)C)C(=O)N[C@@H](C)C(=O)N[C@@H](Cc2c[nH]cn2)C(=O)N[C@@H](CCC(N)=O)C(=O)N[C@H](C(=O)N[C@@H](Cc2ccc(O)cc2)C(=O)N[C@@H](CCC(N)=O)C(=O)N[C@@H](Cc2ccccc2)C(=O)N[C@H](C(=O)N[C@@H](CC(=O)O)C(=O)N[C@@H](CCCCN)C(=O)N[C@@H](CC(=O)O)C(=O)N[C@@H](CCCCN)C(=O)N[C@@H](CC(=O)O)C(=O)N[C@@H](CC(N)=O)C(=O)N[C@@H](CO)C(=O)N[C@@H](C)C(=O)N2CCC[C@H]2C(=O)N[C@H](C(=O)N[C@@H](CC(=O)O)C(=O)N2CCC[C@H]2C(=O)N[C@@H](CO)C(=O)N[C@@H](CO)C(=O)N2CCC[C@H]2C(=O)N[C@@H](Cc2c[nH]cn2)C(=O)N[C@@H](CO)C(=O)N[C@@H](Cc2ccc(O)cc2)C(N)=O)C(C)C)[C@@H](C)O)[C@@H](C)CC)C(C)C)[C@@H](C)O)NC(=O)[C@H]([C@@H](C)O)NC(=O)CNC(=O)[C@H](Cc2ccccc2)NC(=O)[C@H](CCCNC(=N)N)NC1=O)[C@@H](C)O)[C@@H](C)O [SEQ ID NO: 39]	dose-dependently stimulated; also recorded: significantly promote			
CCCCCCCCCCCCCCCC(=O)NCCCC[C@H](NC(=O)COCCOCCN)C(=O)NCC(=O)N[C@H]1CSSC[C@@H](C(=O)N[C@H](C(=O)N[C@H](C(=O)N[C@@H](CCC(N)=O)C(=O)N[C@@H](CCCCN)C(=O)N[C@@H](CC(C)C)C(=O)N[C@@H](C)C(=O)N[C@@H](Cc2c[nH]cn2)C(=O)N[C@@H](CCC(N)=O)C(=O)N[C@H](C(=O)N[C@@H](Cc2ccc(O)cc2)C(=O)N[C@@H](CCC(N)=O)C(=O)N[C@@H](Cc2ccccc2)C(=O)N[C@H](C(=O)N[C@@H](CC(=O)O)C(=O)N[C@@H](CCCCN)C(=O)N[C@@H](CC(=O)O)C(=O)N[C@@H](CCCCN)C(=O)N[C@@H](CCC(N)=O)C(=O)N[C@@H](CC(=O)O)C(=O)N[C@@H](CO)C(=O)N[C@@H](C)C(=O)N2CCC[C@H]2C(=O)N[C@H](C(=O)N[C@@H](CC(=O)O)C(=O)N2CCC[C@H]2C(=O)N[C@@H](CO)C(=O)N[C@@H](CO)C(=O)N2CCC[C@H]2C(=O)N[C@@H](Cc2c[nH]cn2)C(=O)N[C@@H](CO)C(=O)N[C@@H](Cc2ccc(O)cc2)C(N)=O)C(C)C)[C@@H](C)O)[C@@H](C)CC)C(C)C)[C@@H](C)O)NC(=O)[C@H]([C@@H](C)O)NC(=O)CNC(=O)[C@H](Cc2ccccc2)NC(=O)[C@H](CCCNC(=N)N)NC1=O [SEQ ID NO: 51] (H-[AEEA]K(Palmitoyl)GCRFGTCTVQKLAHQIYQFTDKDKQDSAPVDPSSPHSY-NH2; disulfide 4-9)		107%	65%	
CCCCCCCCCCCCCCCC(=O)NCCCC[C@H](NC(=O)COCCOCCN)C(=O)NCC(=O)N[C@H]1CSSC[C@@H](C(=O)N[C@H](C(=O)N[C@H](C(=O)N[C@@H](CCC(N)=O)C(=O)N[C@@H](CCCCN)C(=O)N[C@@H](CC(C)C)C(=O)N[C@@H](C)C(=O)N[C@@H](Cc2c[nH]cn2)C(=O)N[C@@H](CCC(N)=O)C(=O)N[C@H](C(=O)N[C@@H](Cc2ccc(O)cc2)C(=O)N[C@@H](CCC(N)=O)C(=O)N[C@@H](Cc2ccccc2)C(=O)N[C@H](C(=O)N[C@@H](CC(=O)O)C(=O)N[C@@H](CCCCN)C(=O)N[C@@H](CC(=O)O)C(=O)N[C@@H](CCCCN)C(=O)N[C@@H](CC(=O)O)C(=O)N[C@@H](CC(N)=O)C(=O)N[C@H](C(=O)N[C@@H](C)C(=O)N2CCC[C@H]2C(=O)N[C@@H](CCCNC(=N)N)C(=O)N[C@@H](CO)C(=O)N[C@@H](CCCCN)C(=O)N[C@@H](CO)C(=O)N[C@@H](CO)C(=O)N2CCC[C@H]2C(=O)N[C@@H](Cc2c[nH]cn2)C(=O)N[C@@H](CO)C(=O)N[C@@H](Cc2ccc(O)cc2)C(N)=O)C(C)C)[C@@H](C)O)[C@@H](C)CC)C(C)C)[C@@H](C)O)NC(=O)[C@H]([C@@H](C)O)NC(=O)CNC(=O)[C@H](Cc2ccccc2)NC(=O)[C@H](CCCNC(=N)N)NC1=O [SEQ ID NO: 61]		92%	70%	
CCCCCCCCCCCCCCCC(=O)NCCCC[C@H](NC(=O)COCCOCCN)C(=O)NCC(=O)N[C@H]1CSSC[C@@H](C(=O)N[C@H](C(=O)N[C@H](C(=O)N[C@@H](CCC(N)=O)C(=O)N[C@@H](CCCCN)C(=O)N[C@@H](CC(C)C)C(=O)N[C@@H](C)C(=O)N[C@@H](Cc2c[nH]cn2)C(=O)N[C@@H](CCC(N)=O)C(=O)N[C@H](C(=O)N[C@@H](Cc2ccc(O)cc2)C(=O)N[C@@H](CCC(N)=O)C(=O)N[C@@H](Cc2ccccc2)C(=O)N[C@H](C(=O)N[C@@H](CC(=O)O)C(=O)N[C@@H](CCCCN)C(=O)N[C@@H](CC(=O)O)C(=O)N[C@@H](CCCCN)C(=O)N[C@@H](CC(=O)O)C(=O)N[C@@H](CC(N)=O)C(=O)N[C@H](C(=O)N[C@@H](CC(=O)O)C(=O)N2CCC[C@H]2C(=O)N[C@@H](CO)C(=O)N[C@@H](CO)C(=O)N2CCC[C@H]2C(=O)N[C@@H](Cc2c[nH]cn2)C(=O)N[C@@H](CO)C(=O)N[C@@H](Cc2ccc(O)cc2)C(N)=O)C(C)C)[C@@H](C)O)[C@@H](C)CC)C(C)C)[C@@H](C)O)NC(=O)[C@H]([C@@H](C)O)NC(=O)CNC(=O)[C@H](Cc2ccccc2)NC(=O)[C@H](CCCNC(=N)N)NC1=O [SEQ ID NO: 94]		82%	67%	CLR/RAMP2-specific
